According to patent US20080249028A1, “Thyrotropin-Releasing Hormone Analogs and Method of Use” (Roger Williams Hospital, priority 2005, published 2008):
Where a SMILES comes first, the peptide text is derived from it. [ ]: non-standard residue; d: D form. pGlu = O=C1CC[CH](C(=O)O)N1

System: STZ-induced hyperglycemic rats
Assay: Effect on STZ-induced hyperglycemia in rats (blood glucose level)
Assay type: in vivo, rat
Description: Male Sprague-Dawley rats (S.D. 180 g) were used in the experiments described below. The animals lived in individual metabolism cages with free access to food and water, while food and body weight were monitored daily. Peripheral blood samples (approximately 10 μl) were obtained from the tail vein of the animals. The blood glucose levels were measured by using Accu-Check Blood Glucose Meter (Roche Diagnosetics Corporation, IN). Beta cell function was evaluated once every two days over a 2-week period by an individual unaware of the treatment group. Animals were evaluated separately for blood glucose level, food intake and body weight. The endpoint check was pancreatic insulin content and pancreatic beta cell number.
Streptozotocin (STZ) was used to chemically induce damage in pancreatic function in order to create a hyperglycemic state in the animals. Eight-week old male Sprague-Dawley rats (200.00 g±10 g) were injected with STZ by intraperitoneal (i.p.) (65 mg/kg body weight (BW)) to create hyperglycemic animals (24 to 48 hours). Blood glucose levels were monitored daily. Onset of hyperglycemia occurred usually about 24 to 48 hours after STZ administration.
[…] the seventh day or on the third day after STZ administration, which allowed for examination of the TRH/TRH analog treatment and the degree of pancreatic damage in the diabetic animal. Again, food intake, body weight and blood glucose levels of each of the animals were monitored. When hyperglycemia was determined to be reversed by TRH/TRH analog, the animal was sacrificed. Blood samples were collected for insulin assay and the pancreas and muscles were collected for further pathological and physiological tests.
The figures shown in the tables are blood glucose levels (mg/dL; i.e., milligrams of glucose per deciliter of blood).

[1] = Table 1, rats, STZ + compound i.p., Day 1
[2] = Table 1, rats, STZ + compound i.p., Day 2
[3] = Table 1, rats, STZ + compound i.p., Day 4
[4] = Table 1, rats, STZ + compound i.p., Day 9
[5] = Table 1, rats, STZ + compound i.p., Day 15
[6] = Table 1, rats, STZ + compound i.p., Day 22
[7] = Table 1, rats, STZ + compound i.p., Day 29
[8] = Table 1, rats, STZ + compound i.p., Day 39
[9] = Table 1, rats, STZ + compound i.p., Day 43
[10] = Table 1, rats, STZ + compound i.p., Day 50
[11] = Table 1, rats, STZ + compound i.p., Day 53
[12] = Table 1, rats, STZ + compound i.p., Day 56
[13] = Table 1, rats, STZ + compound i.p., Day 60
[14] = Table 1, rats, STZ + compound i.p., Day 64

With `CN(N=O)C(=O)N[C@@H]1[C@@H](O)[C@H](O)[C@@H](CO)O[C@@H]1O` [S, streptozotocin, reference compound] the blood glucose level (Table 1, rats, STZ alone, Day 1) was 99.8 mg/dL, the blood glucose level (Table 1, rats, STZ alone, Day 2) was 313.2 mg/dL and the blood glucose level (Table 1, rats, STZ alone, Day 4) was 433.6 mg/dL. For the same molecule, the blood glucose level (Table 1, rats, STZ alone, Day 9) was 320 mg/dL, the blood glucose level (Table 1, rats, STZ alone, Day 15) was 393.8 mg/dL and the blood glucose level (Table 1, rats, STZ alone, Day 22) was 463.8 mg/dL. It also gave a blood glucose level (Table 1, rats, STZ alone, Day 29) of 522.4 mg/dL, a blood glucose level (Table 1, rats, STZ alone, Day 39) of 537.2 mg/dL and a blood glucose level (Table 1, rats, STZ alone, Day 43) of 466.8 mg/dL. For the same molecule, the blood glucose level (Table 1, rats, STZ alone, Day 50) was 485 mg/dL, the blood glucose level (Table 1, rats, STZ alone, Day 53) was 460 mg/dL and the blood glucose level (Table 1, rats, STZ alone, Day 56) was 453 mg/dL. It also gave a blood glucose level (Table 1, rats, STZ alone, Day 60) of 542 mg/dL, a blood glucose level (Table 1, rats, STZ alone, Day 64) of 482 mg/dL and a blood glucose level (Table 2, rats, STZ alone, Day 1) of 98 mg/dL. It also gave a blood glucose level (Table 2, rats, STZ alone, Day 4) of 103 mg/dL, a blood glucose level (Table 2, rats, STZ alone, Day 7) of 506 mg/dL and a blood glucose level (Table 2, rats, STZ alone, Day 11) of 494 mg/dL. It also gave a blood glucose level (Table 2, rats, STZ alone, Day 15) of 329 mg/dL, a blood glucose level (Table 2, rats, STZ alone, Day 18) of 432 mg/dL and a blood glucose level (Table 2, rats, STZ alone, Day 21) of 453 mg/dL. It also gave a blood glucose level (Table 2, rats, STZ alone, Day 25) of 480 mg/dL, a blood glucose level (Table 2, rats, STZ alone, Day 28) of 499 mg/dL and a blood glucose level (Table 2, rats, STZ alone, Day 32) of 529 mg/dL. It also gave a blood glucose level (Table 2, rats, STZ alone, Day 35) of 499 mg/dL, a blood glucose level (Table 2, rats, STZ alone, Day 39) of 508 mg/dL and a blood glucose level (Table 2, rats, STZ alone, Day 42) of 549 mg/dL. It also gave a blood glucose level (Table 2, rats, STZ alone, Day 46) of 536 mg/dL, a blood glucose level (Table 2, rats, STZ alone, Day 54) of 500 mg/dL and a blood glucose level (Table 2, rats, STZ alone, Day 61) of 582 mg/dL. For the same molecule, the “onset of hyperglycemia after STZ administration” value (rats, STZ 65 mg/kg BW i.p.) was 24 to 48 h.
`NC(=O)C1CCCN1C(=O)C(Cc1ccccc1)NC(=O)C1CCC(=O)N1` (stereo not drawn) [PheT, 1-{3-phenyl-2-[(5-oxo-pyrrolidine-2-carbonyl)-amino]-propionyl}-pyrrolidine-2-carboxylic acid amide] ([pGlu]-Phe-Pro-NH2; configuration not given here) was tested, and the blood glucose level [1] was 105.8 mg/dL, the blood glucose level [2] was 316.8 mg/dL and the blood glucose level [3] was 419.8 mg/dL. The blood glucose level [4] was 130.8 mg/dL, the blood glucose level [5] was 234.4 mg/dL and the blood glucose level [6] was 359.2 mg/dL. The blood glucose level [7] was 407.2 mg/dL, the blood glucose level [8] was 434.8 mg/dL and the blood glucose level [9] was 432 mg/dL. The blood glucose level [10] was 478 mg/dL, the blood glucose level [11] was 424 mg/dL and the blood glucose level [12] was 355 mg/dL. The blood glucose level [13] was 381 mg/dL and the blood glucose level [14] was 414 mg/dL.
`NC(=O)CNC(=O)C1CCCN1C(=O)C(Cc1c[nH]cn1)NC(=O)C1CCC(=O)N1` (stereo not drawn) [Glp, Glp-His-Pro-Gly-NH2] ([pGlu]HPG-NH2; configuration not given here) gave a blood glucose level [1] of 103.8 mg/dL, a blood glucose level [2] of 396 mg/dL and a blood glucose level [3] of 446 mg/dL. The blood glucose level [4] was 275 mg/dL, the blood glucose level [5] was 348 mg/dL and the blood glucose level [6] was 419 mg/dL. It also gave a blood glucose level [7] of 431 mg/dL, a blood glucose level [8] of 448 mg/dL and a blood glucose level [9] of 423 mg/dL. The blood glucose level [10] was 416 mg/dL, the blood glucose level [11] was 432 mg/dL and the blood glucose level [12] was 400 mg/dL. It also gave a blood glucose level [13] of 468 mg/dL and a blood glucose level [14] of 421 mg/dL.
